Where two headings read alike, the source gives them in different places. Positions of bridges follow the written chain, without caps; N, C: chain ends. Non-standard residues stand in square brackets, D forms with d. Residues, ends and D or L forms follow the SMILES beside them. ξ: configuration not given here. Tyr(3-Br) = N[C@@H](Cc1ccc(O)c(Br)c1)C(=O)O; Bip = N[C@@H](Cc1ccc(-c2ccccc2)cc1)C(=O)O; Phe(4-CN) = N#Cc1ccc(C[C@H](N)C(=O)O)cc1; Phe(2-Cl) = N[C@@H](Cc1ccccc1Cl)C(=O)O; Bta = N[C@@H](Cc1csc2ccccc12)C(=O)O; Hyp = O=C(O)[C@@H]1C[C@@H](O)CN1; NMeF = CN[C@@H](Cc1ccccc1)C(=O)O; AllylGly = C=CC[C@H](N)C(=O)O; NMeNle = CCCC[C@H](NC)C(=O)O; NMeA = CN[C@@H](C)C(=O)O; Orn = NCCC[C@H](N)C(=O)O; Dab = NCC[C@H](N)C(=O)O; Dap = NC[C@H](N)C(=O)O; ξhCys = NC(CCS)C(=O)O; Sar = CNCC(=O)O
What was measured:
Human PD-L1/PD-1 = biological target: T1, Human PD-L1/PD-1 (Homo sapiens, UniProt Q9NZQ7); assay: HTRF PD-1-Ig/PD-L1-His binding assay (human PD-L1)
T1 construct: made in house; host or cells: HEK293T
How it was run: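 Readout: time-resolved FRET between Eu cryptate-labeled anti-Ig (1 nM final) and APC-labeled anti-His (20 nM final) antibodies. These detect interaction of Fc-fused PD-1 with His-tagged human PD-L1 in dPBS containing 0.1% BSA and 0.05% Tween-20.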

[1] = biological target: T2, LK35.2-hPD-L1 cells / PE-labeled PD-1-Ig (Homo sapiens, UniProt Q9NZQ7); assay: LK35.2-hPD-L1 cell binding high-content screening assay; format: cell-based
T2 construct: expressed in transfected cells; host or cells: LK35.2 mouse B cell line
How it was run: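 Fluorescent PD-1-Ig binding to PD-L1-expressing LK35.2 cells, imaged after washing. Conditions: 1 nM PE-PD-1-Ig, 37 °C, 1 h, RPMI with 10% fetal calf serum.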

[2] = cluster symbol, read-out: HTRF IC50 cluster
[3] = cluster symbol, cell line of CBA not given (LK35.2-hPD-L1 or 293T-hPD-L1), read-out: CBA IC50 cluster
[4] = cell binding assay, cell line not given, cluster symbol, read-out: CBA IC50 cluster

T2 sequence (Q9NZQ7 19-290): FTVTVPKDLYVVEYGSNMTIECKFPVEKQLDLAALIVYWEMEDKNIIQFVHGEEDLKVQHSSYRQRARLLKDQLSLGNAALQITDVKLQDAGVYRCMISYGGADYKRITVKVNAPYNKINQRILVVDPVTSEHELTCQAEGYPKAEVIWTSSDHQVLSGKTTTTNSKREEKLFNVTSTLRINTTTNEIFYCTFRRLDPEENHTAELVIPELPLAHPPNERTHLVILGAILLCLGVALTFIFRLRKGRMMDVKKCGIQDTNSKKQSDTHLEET
T1 sequence (Q9NZQ7 with tags, fused parts or gaps): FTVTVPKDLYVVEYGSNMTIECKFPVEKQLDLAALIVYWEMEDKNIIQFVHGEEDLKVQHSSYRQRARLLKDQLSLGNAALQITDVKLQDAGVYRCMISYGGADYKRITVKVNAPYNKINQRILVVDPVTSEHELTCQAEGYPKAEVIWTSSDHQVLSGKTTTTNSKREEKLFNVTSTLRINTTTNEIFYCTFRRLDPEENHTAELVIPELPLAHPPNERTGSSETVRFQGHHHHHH

Compound: CCCC[C@H]1C(=O)N(C)[C@@H](CCCC)C(=O)N[C@@H](CCCNC(=N)N)C(=O)N[C@H](C(=O)NCC(N)=O)CSCC(=O)N[C@@H](Cc2ccc(O)cc2)C(=O)N(C)[C@@H](C)C(=O)N[C@@H](CC(N)=O)C(=O)N[C@@H](Cc2cnc[nH]2)C(=O)N2CCC[C@H]2C(=O)N[C@@H](CC(C)C)C(=O)N2CCC[C@H]2C(=O)N[C@@H](Cc2c[nH]c3ccccc23)C(=O)N[C@@H](CO)C(=O)N[C@@H](Cc2csc3ccccc23)C(=O)N1C [Example 1052] ({CH2CO}-Y[NMeA]NHPLPWS[Bta][NMeNle][NMeNle]RCG-NH2; thioether N-14)
- IC50 (Human PD-L1/PD-1; [2]): > 30.5 nM
- IC50 [1, 3]: > 74.3 nM

Compound: CCCC[C@H]1C(=O)N(C)[C@@H](COCC)C(=O)N[C@@H](CCCNC(=N)N)C(=O)NC(C(=O)NCC(N)=O)CSCC(=O)N[C@@H](Cc2ccc(O)cc2)C(=O)N(C)[C@@H](C)C(=O)N[C@@H](CC(N)=O)C(=O)N2CCC[C@H]2C(=O)N[C@@H](Cc2cnc[nH]2)C(=O)N[C@@H](CC(C)C)C(=O)N2C[C@H](O)C[C@H]2C(=O)N[C@@H](Cc2c[nH]c3ccccc23)C(=O)N[C@@H](CO)C(=O)N[C@@H](Cc2c[nH]c3ccccc23)C(=O)N1C (stereo partly shown) [Example 9043]
- IC50 (Human PD-L1/PD-1; [2]): 0.385 to 6.74 nM
- IC50 [1, 4]: 0.158 to 4.71 nM

Compound: CCCC[C@H]1C(=O)N(C)[C@@H](CCCC)C(=O)N[C@@H](CCCNC(=N)N)C(=O)N[C@H](C(=O)NCC(N)=O)CSCC(=O)N[C@@H](Cc2ccccc2)C(=O)N(C)[C@@H](C)C(=O)N[C@@H](CC(N)=O)C(=O)N2CCC[C@H]2C(=O)N[C@@H](Cc2cnc[nH]2)C(=O)N[C@@H](CC(C)C)C(=O)N(C)CC(=O)N[C@@H](Cc2c[nH]c3ccccc23)C(=O)N[C@@H](CCCCN)C(=O)N[C@@H](Cc2c[nH]c3ccccc23)C(=O)N1C [Example 1069] ({CH2CO}-F[NMeA]NPHL[Sar]WKW[NMeNle][NMeNle]RCG-NH2; thioether N-14)
- IC50 (Human PD-L1/PD-1; [2]): 0.385 to 6.74 nM
- IC50 [1, 3]: 4.78 to 72.9 nM

Compound: CCCC[C@H]1C(=O)N(C)[C@@H](CCCC)C(=O)N[C@@H](CCCNC(=N)N)C(=O)N[C@H](C(=O)NCC(N)=O)CSCC(=O)N[C@@H](Cc2ccc(O)cc2)C(=O)N(C)[C@@H](C)C(=O)N[C@@H](CC(N)=O)C(=O)N2CCC[C@H]2C(=O)N[C@@H](Cc2cnc[nH]2)C(=O)N[C@@H](CCC(=O)O)C(=O)N2CCC[C@H]2C(=O)N[C@@H](Cc2c[nH]c3ccccc23)C(=O)N[C@@H](CO)C(=O)N[C@@H](Cc2csc3ccccc23)C(=O)N1C [Example 1115] ({CH2CO}-Y[NMeA]NPHEPWS[Bta][NMeNle][NMeNle]RCG-NH2; thioether N-14)
- IC50 (Human PD-L1/PD-1; [2]): 0.385 to 6.74 nM
- IC50 [1, 3]: 0.158 to 4.71 nM

Compound: CCCC[C@H]1C(=O)N(C)CC(=O)N[C@@H](CC(N)=O)C(=O)N[C@@H](C(C)C)C(=O)N(C)[C@@H](Cc2ccccc2)C(=O)N[C@@H](Cc2ccc(O)cc2)C(=O)N(C)CC(=O)N[C@@H](Cc2c[nH]c3ccccc23)C(=O)N[C@@H](Cc2ccc(O)cc2)C(=O)N[C@@H](CCCN)C(=O)N[C@H](C(=O)NCC(N)=O)CSCC(=O)N[C@@H](Cc2ccccc2)C(=O)N[C@@H](Cc2ccc(-c3ccccc3)cc2)C(=O)N1C [Example 3611] ({CH2CO}-F[Bip][NMeNle][Sar]NV[NMeF]Y[Sar]WY[Orn]CG-NH2; thioether N-13)
- IC50 (Human PD-L1/PD-1; [2]): > 30.5 nM
- IC50 [1, 4]: > 74.3 nM

Compound: CCCC[C@H]1C(=O)N(C)[C@@H](CCCC)C(=O)N[C@@H](CCCNC(=N)N)C(=O)N[C@H](C(=O)NCC(N)=O)CSCC(=O)N[C@@H](Cc2ccc(O)cc2)C(=O)N(C)[C@@H](C)C(=O)N[C@@H](CC(N)=O)C(=O)N2CCC[C@H]2C(=O)N[C@@H](CN)C(=O)N[C@@H](CC(C)C)C(=O)N2C[C@H](O)C[C@H]2C(=O)N[C@@H](Cc2c[nH]c3ccccc23)C(=O)N[C@@H](CO)C(=O)N[C@@H](Cc2csc3ccccc23)C(=O)N1C [Example 1118] ({CH2CO}-Y[NMeA]NP[Dap]L[Hyp]WS[Bta][NMeNle][NMeNle]RCG-NH2; thioether N-14)
- IC50 (Human PD-L1/PD-1; [2]): 6.76 to 30.3 nM
- IC50 [1, 3]: 0.158 to 4.71 nM

Compound: C=CC[C@@H]1NC(=O)[C@H](Cc2c[nH]c3ccccc23)NC(=O)[C@@H]2CCCN2C(=O)[C@H](CC(C)C)NC(=O)[C@H](Cc2cnc[nH]2)NC(=O)[C@@H]2CCCN2C(=O)[C@H](CC(N)=O)NC(=O)[C@H](C)N(C)C(=O)[C@H](Cc2ccc(O)cc2)NC(=O)CSC[C@@H](C(=O)NCC(N)=O)NC(=O)[C@H](CC=C)NC(=O)[C@H](CCCC)N(C)C(=O)[C@H](CCCC)N(C)C(=O)[C@H](Cc2c[nH]c3ccccc23)NC1=O [Example 7014] ({CH2CO}-Y[NMeA]NPHLPW[AllylGly]W[NMeNle][NMeNle][AllylGly]CG-NH2; thioether N-14)
- IC50 (Human PD-L1/PD-1; [2]): 0.385 to 6.74 nM
- IC50 [1, 4]: 0.158 to 4.71 nM

Compound: CCCC[C@H]1C(=O)N(C)[C@@H](CCCC)C(=O)N[C@@H](CCCN)C(=O)N[C@H](C(=O)NCC(N)=O)CSCC(=O)N[C@@H](Cc2ccccc2)C(=O)N(C)[C@@H](C)C(=O)N[C@@H](CC(N)=O)C(=O)N2CCC[C@H]2C(=O)N[C@@H](Cc2cnc[nH]2)C(=O)N[C@@H](CC(C)C)C(=O)N(C)CC(=O)N[C@@H](Cc2c[nH]c3ccccc23)C(=O)N[C@@H](CO)C(=O)N[C@@H](Cc2c[nH]c3ccccc23)C(=O)N1C [Example 1055] ({CH2CO}-F[NMeA]NPHL[Sar]WSW[NMeNle][NMeNle][Orn]CG-NH2; thioether N-14)
- IC50 (Human PD-L1/PD-1; [2]): 6.76 to 30.3 nM
- IC50 [1, 3]: 4.78 to 72.9 nM

Compound: CCCC[C@H]1C(=O)N(C)[C@@H](CCCC)C(=O)N[C@@H](CCCN)C(=O)N[C@H](C(=O)NCC(N)=O)CSCC(=O)N[C@@H](Cc2ccc(O)cc2)C(=O)N(C)[C@@H](C)C(=O)N[C@@H](CC(=O)O)C(=O)N2CCC[C@H]2C(=O)N[C@@H](Cc2c[nH]cn2)C(=O)N[C@@H](CCC(N)=O)C(=O)N2C[C@H](O)C[C@H]2C(=O)N[C@@H](Cc2c[nH]c3ccccc23)C(=O)N[C@@H](CO)C(=O)N[C@@H](Cc2c[nH]c3ccccc23)C(=O)N1C [Example 5114] ({CH2CO}-Y[NMeA]DPHQ[Hyp]WSW[NMeNle][NMeNle][Orn]CG-NH2; thioether N-14)
- IC50 (Human PD-L1/PD-1; [2]): 0.385 to 6.74 nM
- IC50 [1, 4]: 0.158 to 4.71 nM

Compound: CCCC[C@H]1C(=O)N(C)[C@@H](CCCC)C(=O)N[C@@H](CCCNC(=N)N)C(=O)N[C@H](C(=O)NCC(N)=O)CSCC(=O)N[C@@H](Cc2ccc(C#N)cc2)C(=O)N(C)[C@@H](C)C(=O)N[C@@H](CC(N)=O)C(=O)N2CCC[C@H]2C(=O)N[C@@H](Cc2cnc[nH]2)C(=O)N[C@@H](CC(C)C)C(=O)N2C[C@H](O)C[C@H]2C(=O)N[C@@H](Cc2c[nH]c3ccccc23)C(=O)N[C@@H](CO)C(=O)N[C@@H](Cc2c[nH]c3ccccc23)C(=O)N1C [Example 7046] ({CH2CO}-[Phe(4-CN)][NMeA]NPHL[Hyp]WSW[NMeNle][NMeNle]RCG-NH2; thioether N-14)
- IC50 (Human PD-L1/PD-1; [2]): 0.385 to 6.74 nM
- IC50 [1, 4]: 0.158 to 4.71 nM

Compound: CCCC[C@H]1C(=O)N(C)CC(=O)N[C@@H](CC(=O)O)C(=O)N[C@@H](C(C)C)C(=O)N[C@@H](Cc2ccccc2Cl)C(=O)N[C@@H](Cc2ccc(O)cc2)C(=O)N(C)CC(=O)N[C@@H](Cc2c[nH]c3ccccc23)C(=O)N[C@@H](Cc2ccc(O)cc2)C(=O)N[C@@H](CC(C)C)C(=O)N[C@H](C(=O)NCC(N)=O)CSCC(=O)N[C@@H](Cc2ccccc2)C(=O)N(C)[C@@H](Cc2ccccc2)C(=O)N1C [Example 3132] ({CH2CO}-F[NMeF][NMeNle][Sar]DV[Phe(2-Cl)]Y[Sar]WYLCG-NH2; thioether N-13)
- IC50 (Human PD-L1/PD-1; read-out: HTRF IC50 value): 2230 nM
- IC50 ([1]; cell line of CBA not given (LK35.2-hPD-L1 or 293T-hPD-L1), read-out: CBA IC50 value): 3780 nM

Compound: CCCC[C@H]1C(=O)N(C)[C@@H](CCCC)C(=O)N[C@@H](CCCNC(=N)N)C(=O)NC(C(=O)NCC(N)=O)CCSCC(=O)N[C@@H](Cc2ccc(O)cc2)C(=O)N(C)[C@@H](C)C(=O)N[C@@H](CC(N)=O)C(=O)N2CCC[C@H]2C(=O)N[C@@H](Cc2cnc[nH]2)C(=O)N[C@@H](CC(C)C)C(=O)N2C[C@H](O)C[C@H]2C(=O)N[C@@H](Cc2c[nH]c3ccccc23)C(=O)N[C@@H](CO)C(=O)N[C@@H](Cc2csc3ccccc23)C(=O)N1C (stereo partly shown) [Example 9020] ({CH2CO}-Y[NMeA]NPHL[Hyp]WS[Bta][NMeNle][NMeNle]R[ξhCys]G-NH2; thioether N-14)
- IC50 (Human PD-L1/PD-1; [2]): 0.385 to 6.74 nM
- IC50 [1, 4]: 4.78 to 72.9 nM

Compound: CCCC[C@H]1C(=O)N2CCC[C@@H]2C(=O)N[C@@H](CCN)C(=O)N[C@H](C(=O)NCC(N)=O)CSCC(=O)N[C@@H](Cc2ccc(O)c(Br)c2)C(=O)N(C)[C@@H](C)C(=O)N[C@@H](CC(N)=O)C(=O)N2CCC[C@H]2C(=O)N[C@@H](Cc2cnc[nH]2)C(=O)N[C@@H](CC(C)C)C(=O)N(C)CC(=O)N[C@@H](Cc2c[nH]c3ccccc23)C(=O)N[C@@H](CCN)C(=O)N[C@@H](Cc2c[nH]c3ccccc23)C(=O)N1C [Example 6045] ({CH2CO}-[Tyr(3-Br)][NMeA]NPHL[Sar]W[Dab]W[NMeNle][dP][Dab]CG-NH2; thioether N-14)
- IC50 (Human PD-L1/PD-1; value given instead of cluster, read-out: HTRF IC50 value): 90.1 nM
- IC50 ([1]; cell binding assay, cell line not given, value given instead of cluster, read-out: CBA IC50 value): 625 nM

Compound: CCCC[C@H]1C(=O)N(C)[C@@H](CCCC)C(=O)N[C@@H](CCN)C(=O)N[C@H](C(=O)NCC(N)=O)CSCC(=O)N[C@@H](Cc2ccc(O)cc2)C(=O)N(C)[C@@H](C)C(=O)N[C@@H](CC(=O)O)C(=O)N2CCC[C@H]2C(=O)N[C@@H](Cc2cnc[nH]2)C(=O)N[C@@H](CCC(N)=O)C(=O)N2C[C@H](O)C[C@H]2C(=O)N[C@@H](Cc2c[nH]c3ccccc23)C(=O)N[C@@H](CO)C(=O)N[C@@H](Cc2c[nH]c3ccccc23)C(=O)N1C [Example 5045] ({CH2CO}-Y[NMeA]DPHQ[Hyp]WSW[NMeNle][NMeNle][Dab]CG-NH2; thioether N-14)
- IC50 (Human PD-L1/PD-1; [2]): 0.385 to 6.74 nM
- IC50 [1, 4]: 0.158 to 4.71 nM
